# Reference: US9637770B2, “Methods and devices for handling biofouling” (MEKOROT WATER COMPANY, LTD., priority 2011, dated 2017)
# Legend:
# [1] = system: biofilm on RO membrane; assay: Biofilm grown on RO membranes for 15 days with input water containing chloramines, measured with CLSM; format: cell-based
# Method: Biofilm was allowed to grow on the surface of miniature RO membranes (ESNA1-LF, Hydranautics, USA), equipped within a device having the membrane held within a closed chamber, the chamber comprising a feed inlet, brine outlet and permeate outlet for fluids, where the pressure obtain from the desalination pilot pressurized flows.
# For biofilm analysis a 5×5 mm membrane segment was taken from each of the tested membranes. Each segment was inserted into an Eppendorf test tube comprising 2 ml 0.24% sterilized TRIS solution (pH 7.2) and the test tubes were turned upside down gently several time. […]
# The staining of the RO membranes with SYTO9 and Tetramethylrhodamine, provided information about the presence and quantity of microorganisms and the extracellular polymeric substance (EPS), respectively. The CLSM images were scanned and analyzed with PHLIP software (http://sourceforge.net/projects/phlip/) which enabled quantization of CLSM data with respect to the biovolume of the biofilm. […]
# In addition, water from sampling Point No. 3 (SP3) was allowed to flow through miniature membrane facilities (as described above) in parallel, for 15 days in order to allow growth of biofilm on the surface of the membranes. After 15 days, the membranes were treated and analyzed as described above in order to determine the resulting biovolume. […]
# [2] = system: biofilm on the membrane surface; assay: Normalized permeate flow of the pilot plant with low dose of chloramines
# Method: FIG. 7 provides a graph showing the normalized permeate flow as a function of operation time for a pilot plant with low dose of chloramines as determined with the bio-sensor test. Also examined was the effect of preventing the development of biofilm on the membrane surface when 4.2 mg/L hypochlorite were added.
# [3] = system: microorganisms; assay: Biofouling index on the biosensor after 24 h circulation of water dosed with hypochlorite; format: cell-based
# Method: The change in color on the biosensor was determined for each water sample in six repetitions as described above.
# The biofouling Index was determined as follows: Biofouling Index=100×PPP×(1−PPP)+(100−LL)×PPP
# For simplicity, the Biofouling Index was translated into a biofouling score, A, B, C, . . . F, according to ranges of biofouling, with lower biofouling range, representing low biofouling identified as score A. The correlating score is identified in Table 7.
# Hypochlorite was dissolved to obtain a stock solution of 140 mg/L. Dilutions of this stock solution were as detailed in Table 9. The dilutions were injected into the water circulating in the biosensing apparatus and the total chlorine concentration was measured for each dilution. As control, no hypochlorite was added.
# Circulation conditions: flow: 90 ml/min; circulation container volume: 2 L; duration of circulation: 24 hours at a temperature of 35° C.
smiles,measurement,setting,value
"OCl [Sodium hypochlorite, sodium hypochlorite]",Biovolume of biofilm on the membrane relative to that without hypochlorite,"[1]; 4.2 mg/L hypochlorite (1.5 mg/L chloramines), injected 4 hours per day, Stage I input water",about ⅕
same,Thickness of biofilm relative to that in the absence of chloramines,[1]; hypochlorite added (chloramines),about ⅕
same,Effect on normalized permeate flow,"[2]; 4.2 mg/L hypochlorite, 320 hours, Stage I, Stage II and Stage III",no decrease in permeate flow
same,Effect on biofouling on the membranes,"[2]; treatment with hypochlorite, data not shown",reduced biofouling on the membranes
same,Amount of hypochlorite sufficient to prevent biofouling (close to zero biofouling),"[3]; 24 h circulation, 35° C.",4.2 mg/L
same,Biofouling index after addition of hypochlorite (drop from control level C),"[3]; all tested amounts of hypochlorite, control C, 24 h circulation",B (biofouling index <6)
same,Biofouling index,"[3]; sodium hypochlorite 0.7 mg/l, total chloramines 0.17 mg/l, 24 h circulation, 35° C.",B (biofouling index <6)
same,Biofouling index,"[3]; sodium hypochlorite 1.4 mg/l, total chloramines 0.29 mg/l, 24 h circulation, 35° C.",B (biofouling index <6)
same,Biofouling index,"[3]; sodium hypochlorite 2.1 mg/l, total chloramines 0.45 mg/l, 24 h circulation, 35° C.",B (biofouling index <6)
same,Biofouling index,"[3]; sodium hypochlorite 2.8 mg/l, total chloramines 0.94 mg/l, 24 h circulation, 35° C.",B (biofouling index <6)
same,Biofouling index,"[3]; sodium hypochlorite 2.8 mg/l, total chloramines 1.0 mg/l, 24 h circulation, 35° C.",B (biofouling index <6)
same,Biofouling index,"[3]; sodium hypochlorite 4.2 mg/l, total chloramines 1.42 mg/l, 24 h circulation, 35° C.",B (biofouling index <6)
same,Biofouling index,"[3]; sodium hypochlorite 4.2 mg/l, total chloramines 1.48 mg/l, 24 h circulation, 35° C.",B (biofouling index <6)
same,Biofouling index,"[3]; sodium hypochlorite 4.6 mg/l, total chloramines 1.63 mg/l, 24 h circulation, 35° C.",B (biofouling index <6)
same,Biofouling index,"[3]; sodium hypochlorite 5.6 mg/l, total chloramines 1.86 mg/l, 24 h circulation, 35° C.",B (biofouling index <6)
same,"Biofouling index (numerical, FIG. 4)",[3]; total chlorine concentration of 1.4 mg/L and more,close to zero
